According to the CheMixHub viscosity set:
± gives the uncertainty stated by the source.

Test: xn = mol fraction of the nth substance listed

C=CC#N + CCCCO
viscosity [mPa·s], 101.33 kPa
Conditions | x1 = 0.1054 | x1 = 0.2059 | x1 = 0.305 | x1 = 0.4063 | x1 = 0.5073 | x1 = 0.6039 | x1 = 0.6962 | x1 = 0.8074 | x1 = 0.9006
298.15 K | 1.797 ± 0.022 | 1.363 ± 0.017 | 1.065 ± 0.014 | 0.849 ± 0.011 | 0.69 ± 0.009 | 0.581 ± 0.008 | 0.499 ± 0.007 | 0.429 ± 0.006 | 0.386 ± 0.006
303.15 K | 1.596 ± 0.02 | 1.221 ± 0.015 | 0.965 ± 0.013 | 0.776 ± 0.01 | 0.637 ± 0.009 | 0.539 ± 0.008 | 0.468 ± 0.007 | 0.407 ± 0.006 | 0.369 ± 0.006
308.15 K | 1.424 ± 0.018 | 1.102 ± 0.014 | 0.881 ± 0.012 | 0.714 ± 0.01 | 0.594 ± 0.008 | 0.505 ± 0.007 | 0.442 ± 0.007 | 0.385 ± 0.006 | 0.352 ± 0.006

C=CC#N + CCCCCO
viscosity [mPa·s], 101.33 kPa
Conditions | x1 = 0.1032 | x1 = 0.2077 | x1 = 0.3006 | x1 = 0.4053 | x1 = 0.5035 | x1 = 0.6091 | x1 = 0.7025 | x1 = 0.8042 | x1 = 0.9004
298.15 K | 2.405 ± 0.029 | 1.777 ± 0.022 | 1.384 ± 0.017 | 1.064 ± 0.014 | 0.847 ± 0.011 | 0.668 ± 0.009 | 0.558 ± 0.008 | 0.464 ± 0.007 | 0.401 ± 0.006
303.15 K | 2.107 ± 0.025 | 1.58 ± 0.02 | 1.24 ± 0.016 | 0.965 ± 0.013 | 0.774 ± 0.01 | 0.619 ± 0.009 | 0.52 ± 0.008 | 0.436 ± 0.007 | 0.382 ± 0.006
308.15 K | 1.86 ± 0.023 | 1.413 ± 0.018 | 1.122 ± 0.014 | 0.879 ± 0.012 | 0.715 ± 0.01 | 0.577 ± 0.008 | 0.488 ± 0.007 | 0.416 ± 0.006 | 0.364 ± 0.006

C=CC#N + C1CCCCC1
307.4 K, 101.33 kPa
Conditions | viscosity [mPa·s]
x2 = 0.0861 | 0.66 ± 0.01
x2 = 0.2848 | 0.53 ± 0.01
x2 = 0.5332 | 0.419 ± 0.004
x2 = 0.544 | 0.396 ± 0.004
x2 = 0.7114 | 0.359 ± 0.003
x2 = 0.8989 | 0.318 ± 0.003

CCC(C)(C)O + CCC(C)=O
Conditions | viscosity [mPa·s]
293.15 K, 101 kPa, x2 = 0.2341 | 2.105 ± 0.39

C=CC#N + CCCO
viscosity [mPa·s], 101.33 kPa
Conditions | x1 = 0.1031 | x1 = 0.203 | x1 = 0.307 | x1 = 0.4079 | x1 = 0.5104 | x1 = 0.6066 | x1 = 0.7057 | x1 = 0.8002 | x1 = 0.9032
298.15 K | 1.409 ± 0.018 | 1.074 ± 0.014 | 0.85 ± 0.011 | 0.688 ± 0.009 | 0.578 ± 0.008 | 0.497 ± 0.007 | 0.435 ± 0.007 | 0.393 ± 0.006 | 0.36 ± 0.006
303.15 K | 1.264 ± 0.016 | 0.975 ± 0.013 | 0.778 ± 0.01 | 0.635 ± 0.009 | 0.538 ± 0.008 | 0.465 ± 0.007 | 0.412 ± 0.006 | 0.373 ± 0.006 | 0.343 ± 0.006
308.15 K | 1.139 ± 0.015 | 0.888 ± 0.012 | 0.71 ± 0.01 | 0.59 ± 0.008 | 0.503 ± 0.007 | 0.438 ± 0.007 | 0.389 ± 0.006 | 0.355 ± 0.006 | 0.328 ± 0.005

C=CC#N + c1ccccc1
307.4 K, 101.33 kPa
Conditions | viscosity [mPa·s]
x2 = 0.0966 | 0.494 ± 0.004
x2 = 0.2512 | 0.448 ± 0.004
x2 = 0.4788 | 0.395 ± 0.004
x2 = 0.5188 | 0.386 ± 0.003
x2 = 0.6633 | 0.357 ± 0.003
x2 = 0.8844 | 0.32 ± 0.003

[2H]O[2H] + [Br-].[K+]
viscosity [mPa·s], 101 kPa
Conditions | x2 = 0.012 | x2 = 0.0375 | x2 = 0.056 | x2 = 0.067 | x2 = 0.073 | x2 = 0.081
298.15 K | 1.086 ± 0.009 | 1.046 ± 0.009 | 1.024 ± 0.008 | 1.018 ± 0.008 | 1.03 ± 0.009 | 1.047 ± 0.009
308.15 K | 0.854 ± 0.007 | 0.856 ± 0.007 | 0.853 ± 0.007 | 0.85 ± 0.007 | 0.868 ± 0.007 | 0.884 ± 0.007
318.15 K | 0.715 ± 0.006 | 0.725 ± 0.006 | 0.732 ± 0.006 | 0.739 ± 0.006 | 0.754 ± 0.006 | 0.767 ± 0.007

CC(=O)CC(C)=O + CO
303.15 K, 101 kPa
Conditions | viscosity [mPa·s]
x1 = 0.0502 | 0.51 ± 0.004
x1 = 0.1002 | 0.516 ± 0.004
x1 = 0.3002 | 0.547 ± 0.004
x1 = 0.5 | 0.579 ± 0.004
x1 = 0.6983 | 0.611 ± 0.004
x1 = 0.9004 | 0.645 ± 0.005
x1 = 0.9511 | 0.655 ± 0.005

CN(C)c1ccccc1 + CC(=O)O
viscosity [mPa·s], 101 kPa
Conditions | x2 = 0.1008 | x2 = 0.201 | x2 = 0.3424 | x2 = 0.3973 | x2 = 0.4957 | x2 = 0.5978 | x2 = 0.7002 | x2 = 0.7928 | x2 = 0.8476 | x2 = 0.9025
298.15 K | 1.363 ± 0.036 | 1.448 ± 0.038 | 1.644 ± 0.043 | 1.757 ± 0.046 | 2.04 ± 0.054 | 2.547 ± 0.067 | 3.352 ± 0.089 | 4.244 ± 0.11 | 4.514 ± 0.12 | 3.819 ± 0.1
318.15 K | 0.9835 ± 0.026 | 1.02 ± 0.027 | 1.106 ± 0.029 | 1.16 ± 0.031 | 1.281 ± 0.034 | 1.488 ± 0.04 | 1.831 ± 0.049 | 2.192 ± 0.059 | 2.327 ± 0.063 | 2.085 ± 0.056

Cc1ccc(C(C)C)cc1 + CO
293.15 K, 101 kPa
Conditions | viscosity [mPa·s]
x2 = 0.2 | 0.799 ± 0.016
x2 = 0.4 | 0.793 ± 0.015
x2 = 0.6 | 0.793 ± 0.015
x2 = 0.7 | 0.774 ± 0.015
x2 = 0.8 | 0.732 ± 0.014

CCCCC(C)O (stereo unspecified) + CC(C)OC(C)C
viscosity [mPa·s], 100 kPa
Conditions | x2 = 0.0806 | x2 = 0.1592 | x2 = 0.2412 | x2 = 0.3508 | x2 = 0.4391 | x2 = 0.5594 | x2 = 0.6497 | x2 = 0.7378 | x2 = 0.8483 | x2 = 0.9386
293.15 K | 4.51 ± 0.23 | 3.97 ± 0.2 | 3.48 ± 0.18 | 2.91 ± 0.15 | 2.49 ± 0.13 | 1.97 ± 0.1 | 1.6 ± 0.08 | 1.26 ± 0.06 | 0.84 ± 0.04 | 0.531 ± 0.027
298.15 K | 3.61 ± 0.18 | 3.16 ± 0.16 | 2.76 ± 0.14 | 2.3 ± 0.12 | 1.97 ± 0.1 | 1.56 ± 0.08 | 1.275 ± 0.065 | 1.02 ± 0.05 | 0.706 ± 0.036 | 0.465 ± 0.024
303.15 K | 2.89 ± 0.15 | 2.53 ± 0.13 | 2.2 ± 0.11 | 1.83 ± 0.09 | 1.567 ± 0.079 | 1.25 ± 0.06 | 1.034 ± 0.052 | 0.84 ± 0.04 | 0.6 ± 0.03 | 0.42 ± 0.02
308.15 K | 2.38 ± 0.12 | 2.08 ± 0.11 | 1.825 ± 0.092 | 1.53 ± 0.08 | 1.32 ± 0.07 | 1.06 ± 0.05 | 0.88 ± 0.04 | 0.715 ± 0.036 | 0.52 ± 0.03 | 0.38 ± 0.02
313.15 K | 2 ± 0.1 | 1.75 ± 0.09 | 1.54 ± 0.08 | 1.29 ± 0.07 | 1.115 ± 0.056 | 0.906 ± 0.046 | 0.756 ± 0.038 | 0.62 ± 0.03 | 0.46 ± 0.02 | 0.35 ± 0.02
318.15 K | 1.69 ± 0.09 | 1.49 ± 0.08 | 1.31 ± 0.07 | 1.11 ± 0.06 | 0.962 ± 0.049 | 0.783 ± 0.04 | 0.66 ± 0.03 | 0.55 ± 0.03 | 0.416 ± 0.021 | 0.32 ± 0.02
323.15 K | 1.44 ± 0.07 | 1.27 ± 0.06 | 1.12 ± 0.06 | 0.95 ± 0.05 | 0.83 ± 0.04 | 0.68 ± 0.04 | 0.58 ± 0.03 | 0.49 ± 0.03 | 0.38 ± 0.02 | 0.295 ± 0.015

O=BOB([O-])OB([O-])OB=O.[Na+].[Na+] + O
viscosity [mPa·s], 101 kPa
Conditions | x1 = 0.0009 | x1 = 0.0018 | x1 = 0.0022 | x1 = 0.0027
298.15 K | 0.9284 ± 0.01 | 0.9681 ± 0.01 | 0.9845 ± 0.01 | 1.008 ± 0.01
308.15 K | 0.7526 ± 0.0084 | 0.7823 ± 0.0086 | 0.7945 ± 0.0087 | 0.8122 ± 0.0088
318.15 K | 0.6216 ± 0.0074 | 0.6508 ± 0.0076 | 0.6626 ± 0.0076 | 0.6806 ± 0.0077
